Laboratory results as given in article PMC3379896 (ACS medicinal chemistry letters, 2012).

What was measured:
MMP-14 = MMP-14 (Homo sapiens, UniProt P50281); experiment: Kinetic inhibition of MMP-14; conditions: slow-binding
MMP-7 = target: T1, MMP-7 (Homo sapiens, UniProt P09237); experiment: Kinetic inhibition of MMP-7; type: biochemical; conditions: read-out: MMP-7 inhibition at fixed concentration
T1 sequence (P09237 95-267): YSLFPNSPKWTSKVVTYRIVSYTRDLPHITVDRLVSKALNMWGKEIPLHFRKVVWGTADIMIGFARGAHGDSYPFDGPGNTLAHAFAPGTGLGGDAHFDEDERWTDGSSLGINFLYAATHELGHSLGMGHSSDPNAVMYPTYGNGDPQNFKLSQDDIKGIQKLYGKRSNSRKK

MMP-1 = target: T2, MMP-1 (Homo sapiens, UniProt P03956); experiment: Kinetic inhibition of MMP-1; type: biochemical; conditions: read-out: MMP-1 inhibition at fixed concentration
T2 sequence (P03956 100-469): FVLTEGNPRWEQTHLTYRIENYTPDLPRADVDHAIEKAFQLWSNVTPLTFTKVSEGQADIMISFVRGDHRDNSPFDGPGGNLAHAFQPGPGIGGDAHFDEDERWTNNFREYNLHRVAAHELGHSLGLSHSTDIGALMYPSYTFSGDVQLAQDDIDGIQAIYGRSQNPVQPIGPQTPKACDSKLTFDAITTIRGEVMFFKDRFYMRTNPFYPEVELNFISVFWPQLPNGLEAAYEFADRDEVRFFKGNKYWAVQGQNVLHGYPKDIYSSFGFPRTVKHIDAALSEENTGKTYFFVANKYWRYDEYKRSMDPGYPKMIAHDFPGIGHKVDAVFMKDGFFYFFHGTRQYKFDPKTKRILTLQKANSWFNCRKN

| Structure (SMILES) | MMP-14 inhibition, in words (MMP-14) | other results |
| --- | --- | --- |
| O=S(=O)(CC1CS1)c1ccc(Oc2cccc(F)c2)cc1 (stereo not drawn) [Compound 19b] | include MMP-14 in their spectrum of inhibition | inhibition at 125 µM (MMP-7): 0 to 3% |
| O=S(=O)(CC1CS1)c1ccc(Oc2ccc(OC(F)(F)F)cc2)cc1 (stereo not drawn) [Compound 38a] | include MMP-14 in their spectrum of inhibition | inhibition at 20 µM (MMP-7): 0 to 3% |
| COCOc1ccc(Oc2ccc(S(=O)(=O)CC3CS3)cc2)cc1 (stereo not drawn) [Compound 33a] | include MMP-14 in their spectrum of inhibition |  |
| O=S(=O)(CC1CS1)c1ccc(Oc2ccc(F)cc2)cc1 (stereo not drawn) [Compound 19a] | include MMP-14 in their spectrum of inhibition | inhibition at 20 µM (MMP-1): 0 to 3% |
| CC(C)Oc1ccc(Oc2ccc(S(=O)(=O)CC3CS3)cc2)cc1 (stereo not drawn) [Compound 32] | include MMP-14 in their spectrum of inhibition |  |
| O=S(=O)(CC1CS1)c1ccc(Oc2ccc(CO)cc2)cc1 (stereo not drawn) [Compound 26] | include MMP-14 in their spectrum of inhibition |  |
| O=S(=O)(CC1CS1)c1ccc(Oc2ccc(I)cc2)cc1 (stereo not drawn) [Compound 22a] | include MMP-14 in their spectrum of inhibition | inhibition at 60 µM (MMP-1): 0 to 3%; inhibition at 10 µM (MMP-7): 0 to 3% |
